Data reported in patent US8822217B2, “Method for cultivating tendon cells from pluripotent cells of mesenchymal origin” (Angewandte Biotechnologie GmbH, priority 2007, dated 2014).

Experiments:
[1] = test system: pluripotent cells of mesenchymal origin; experiment: Western Blot analysis for the collagen production; assay type: cell-based, human; conditions: for secretion of type I collagen (double band at 130 kD): vs untreated sample a; for cross-linking of the collagen (area of 400 kD): compared to sample b
Description: (§1) In order to isolate pluripotent cells of mesenchymal origin, small pieces of Substantia spongiosa, biopsied from the human wing of ilium were digested at 37° C. in 2 ml of DMEM (Dulbecco's modified eagles medium with 4.5 g/l of glucose) with 2.5 mg/ml collagenase for 3 h. The cell pellet obtained from the digested pieces by multiple centrifugation was inoculated in a density of 200000 cells/cm^2 and was incubated for 24 h in DMEM with 10% foetal calf serum (FCS) and specifically at 37° C., 5% C02 and 100% humidity. One preparation gives a growth area of 60 to 180 cm^2. The culture medium was changed twice a week. Before the cells are confluent after six days, they are passaged in the usual way. The first passage is cultivated further under the standard conditions described until the logarithmic growth phase is reached after three days. The culture medium is then exchanged for a medium which was adjusted to an osmolarity of 360 mosmol/l with the aid of saccharose and, in addition to DMEM mixed with 10% FCS, contains 50 μg/ml of ascorbic acid-2-phosphate. The cells are incubated for four days in this culture medium. […] In addition, the secretion of type I collagen and its cross-linking increases. Following stimulation of the cells to enhanced collagen secretion under hyperosmolar conditions, they are cultivated in a standard culture medium for a further 12 h in order to then be investigated.

[2] = test system: pluripotent cells of mesenchymal origin; experiment: Cell morphology of the cell culture after treatment; assay type: cell-based, human
Description: as §1, with “Following stimulation of the cells to enhanced collagen secretion under hyperosmolar conditions, they are cultivated in a standard culture medium for a further 12 h in order to then be investigated.” left out

[3] = sample c: treatment under hyperosmolar conditions
[4] = sample c: treatment under hyperosmolar conditions, listed as ascorbic-2-phosphate

## O=C1O[C@H]([C@@H](O)CO)C(O)=C1OP(=O)(O)O [ascorbic acid-2-phosphate]
[1]; sample b: treatment without hyperosmolar conditions
  secretion of type I collagen (double band at 130 kD): significant increase
[1]; [3]
  resistance to digestion with pepsin: more resistant to digestion with pepsin
  cross-linking of the collagen (area of 400 kD): increases
  secretion of type I collagen (double band at 130 kD): increases
[1]; [4]
  cross-linking of the collagen (area of 400 kD): enhanced cross-linking
  secretion of type I collagen (double band at 130 kD): significant increase
[2]; 50 μg/ml, hyperosmolar conditions (360 mosmol/l with saccharose), four days
  change in the cellular phenotype: the cells become fibroblastic
[2]; treatment with ascorbic-2-phosphate, polygonal structure before treatment
  cell structure (FIG. 1 vs FIG. 2): fibroblastic structures
